Legend:
[1] = tested on: mouse fibroblasts (NIH3T3 cell line); assay: Apoptosis analysis, NIH3T3 fibroblasts; type: cell-based
Protocol: Murine NIH3T3 fibroblasts and human lung epithelial cells (A549 cells) were purchased from the Bioresource Collection and Research Center (Hsinchu, Taiwan). Cells were cultured in Dulbecco's modified eagle medium (DMEM) containing 10% fetal bovine serum (FBS), 100 μg/mL penicillin, 100 μg/mL streptomycin. Cells were cultured at 37° C. in a humidified atmosphere of 5% CO2 and passaged every 4 to 5 days at 1:4 ratios.
The measurement of apoptotic cells was conducted by flow cytometry (sub-G1) and cell death detection enzyme-bound immunosorbent assay (ELISA) for cytoplasmic histone associated DNA fragments. The amount of formazan dye was quantified by measuring the absorbance at 570 nm using ELISA reader to calculate the optical density (OD) values. Statistical analysis was determined using Student's t-test, with P<0.05 considered significant.
STAT3 cDNA (KIAA1524) was purchased from Addgene Platinum Corporation. After the transient transfection of STAT3, SHP-1, SHP-1(dN1) mutants and SHP-1(61A) mutant in mouse fibroblasts (NIH3T3 cell line) and human lung epithelial cells (A549 cell line), cells were reacted separately with the 1-[4-chloro-3-(trifluoromethyl)phenyl]-3-[3-(4-cyanophenoxy)phenyl]urea compound and subjected to the Western blotting process. Transfection was performed by X-tremeGENE HP Transfection Reagent (Roche, Germany) following the manufacturer's instructions. […]

LX2 cells = assay: Apoptosis (Annexin V / propidium iodide flow cytometry), LX2 cells; type: cell-based, human
Protocol: Rat immortal hepatic stellate cell line HSC-T6 and LX2 human hepatic stellate cell line were provided by Professor Scott Friedman of Mount Sinai Hospital in New York, USA. The primary mouse HSCs were obtained via the way: after intubating the hepatic portal vein of the mouse, the cells were perfused with […] and ethylene glycol bis-aminoethyl ether tetraacetic acid (EGTA) buffer in situ, and then collagenase was injected to digest the liver tissue, and then the primary mouse HSCs were isolated by Histodnz gradient. HSC-T6 cells were cultured in Waymouth medium; LX2 cells and primary mouse HSCs were cultured in Dulbecco's Modified Eagle Medium (DMEM) containing 10% fetal bovine serum (FBS), 100 μg/mL penicillin, 100 μg/mL streptomycin, and 2 mM L-glutamine HSC-T6 cells, LX2 cells and primary mouse HSCs were cultured in a humidified incubator containing 5% carbon dioxide at 37° C. After adding the FBS, the resting HSC is started. […] The experiment was carried out following the manufacturer's instructions, and each group was triple repetition. […] The proportion of apoptotic cells was mixed the early (Annexin V+/PI-) and the late (Annexin V+/PI+) apoptotic cells measured by BD FACS Verse flow cytometry (BD, USA). Plasmids encoding the human wild-type SHP-1 and SHP-1 mutant, in which the N-SH2 domain was […] was changed into an […]) were cloned into the pCMV6-entry vector with myc-tag. These mutants were confirmed through DNA sequencing. […] (Chicago, Ill., USA).

[2] = tested on: TGF-β, PDGFR and STAT3 pathways in LX2 cells; assay: Western blot of signalling proteins in LX2 cells; type: cell-based, human
Protocol: Rat immortal hepatic stellate cell line HSC-T6 and LX2 human hepatic stellate cell line were provided by Professor Scott Friedman of Mount Sinai Hospital in New York, USA. The primary mouse HSCs were obtained via the way: after intubating the hepatic portal vein of the mouse, the cells were perfused with […] and ethylene glycol bis-aminoethyl ether tetraacetic acid (EGTA) buffer in situ, and then collagenase was injected to digest the liver tissue, and then the primary mouse HSCs were isolated by Histodnz gradient. HSC-T6 cells were cultured in Waymouth medium; LX2 cells and primary mouse HSCs were cultured in Dulbecco's Modified Eagle Medium (DMEM) containing 10% fetal bovine serum (FBS), 100 μg/mL penicillin, 100 μg/mL streptomycin, and 2 mM L-glutamine HSC-T6 cells, LX2 cells and primary mouse HSCs were cultured in a humidified incubator containing 5% carbon dioxide at 37° C. After adding the FBS, the resting HSC is started. […] Whole-cell extracts were obtained via RIPA buffer (Millipore, USA) and protein concentrations were quantified via a BCA protein assay kit (Thermo Fisher Scientific, USA). 20 or 25 μg of protein was added to various percentages of SDS-sodium dodecyl sulfate-acrylamide gel and blotted onto a polyvinylidene fluoride (PVDF) membrane. […] Proteins were detected by Immobilon Western Chemiluminescent HRP substrate (Millipore, USA) or ECL detection system (UVP Corporation, USA). […] Plasmids encoding the human wild-type SHP-1 and SHP-1 mutant, in which the N-SH2 domain was […] was changed into an […]) were cloned into the pCMV6-entry vector with myc-tag. These mutants were confirmed through DNA sequencing. […] (Chicago, Ill., USA).

In the case of N#Cc1ccc(Oc2cccc(NC(=O)Nc3ccc(Cl)c(C(F)(F)F)c3)c2)cc1 [1-[4-chloro-3-(trifluoromethyl)phenyl]-3-[3-(4-cyanophenoxy)phenyl]urea], the “compound-induced apoptosis after SHP-1 knockout” value ([1]; NIH3T3, SHP-1 siRNA, FIG. 7D) is reported as “offset by SHP-1 knockout”, the “apoptosis of fibrotic cells” value ([1]; NIH3T3, FIG. 7C) is reported as “induced apoptosis” and the “apoptotic LX2 cells, ectopic expression of the vector control and wild-type SHP-1” value (LX2 cells; 5 μM, 24 hours, FIG. 17D, 17E) is reported as “significantly increased the apoptotic LX2 cells”. For the same molecule, the HSC apoptosis (LX2 cells; LX2, 24 hours, compared with sorafenib, FIG. 14B) was “significantly increased HSC apoptosis in a dose-dependent manner”, the “cell apoptosis and p-STAT3 downregulation in dN1 and D61A mutants” value (LX2 cells; LX2, 5 μM, 24 hours, FIG. 17E) was “insensitive” and the “anti-proliferative activity after SHP-1 knockdown by using siRNA” value (LX2 cells; LX2, FIG. 16F) was “significantly counteracted”. For the same molecule, the “p-STAT3, ectopic expression of the vector control and wild-type SHP-1” value ([2]; 5 μM, 24 hours, FIG. 17D, 17E) was “downregulated”, the “p-PDGFR and p-Akt in the PDGFR pathway” value ([2]; 10 μM for 4 hours, then PDGF-BB 100 ng/mL 10 minutes, FIG. 14E) was “downregulated” and the “p-Smad2 and p-Smad3 of the TGF-β pathway” value ([2]; 10 μM for 4 hours, then TGF-β1 10 ng/mL 20 minutes, FIG. 14D) was “downregulated”. For the same molecule, the “downregulation of p-STAT3 and cyclin D1, compared with sorafenib” value ([2]; FIG. 15A) was “more significant dose-escalation effects on the downregulation”.

Reference: patent publication US10993923B2, “Method for ameliorating fibrosis using 1-[4-chloro-3-(trifluoromethyl)phenyl]-3-[3-(4-cyanophenoxy)phenyl]urea” (priority 2016, dated 2021)
